Test results from patent publication US20130034522A1, “THERAPIES FOR TREATING HEPATITIS C VIRUS INFECTION” (priority 2010, published 2013).
Read-outs that look alike come from different tables or passages of the source.

Experiments:
[1] = Study VX-222-102 Part A: VX-222 for 3 days in HCV infected subjects (PK, safety); format: in vivo, human; details: for AUC(0-t) / concentration at 12 h / Cmax / Tmax / half-life: human, in vivo; for AUC(0-t): read-out: AUC0-12 hr Geometric Mean; for concentration at 12 h: read-out: C12 Geometric Mean; for Cmax: read-out: Cmax Geometric Mean; for half-life: read-out: T1/2 Arithmetic Mean (converted)
Protocol: (§1) In Part A of Study 102 subjects were randomized to VX-222 or placebo in a 6:2 (VX-222: placebo) allocation ratio to either Cohort 1, Cohort 2, Cohort 3, or Cohort 4. Subjects enrolled in Cohort 1, Cohort 2, and Cohort 3 were administered 250 mg, 500 mf, or 750 mg VX-222 or placebo twice daily (b.i.d.) for 3 days, respectively. Subjects enrolled in Cohort 4 were administered 1,500 mg VX-222 or placebo once daily (qd) for 3 days. Standard of care treatment, Peg-IFN-alpha-2a and RBV was offered to the subjects at the end of dosing in Part A for up to 48 weeks, if judged appropriate by the physician.
(§2) Additional results of Study VX-222-102 are described in FIGS. 2-8: Thirty-two treatment-naïve patients with chronic genotype 1 HCV infection were enrolled in the trial, including six patients in each dose group who received 250 mg of VX-222 BID, 500 mg of VX-222 BID, 750 mg of VX-222 BID, and 1,500 mg of VX-222 QD. Two patients received placebo in each of the four dosing groups, for a total of eight patients who received placebo. Part A of the trial was conducted at 10 centers in the United States, Canada and Argentina. Of the patients enrolled in the trial, 24 patients had genotype 1a HCV infection and eight patients had genotype 1b HCV infection. Six of the patients enrolled in the trial were African American, 25 were Caucasian and one was American Indian/Alaskan.
(§3) Multicenter, randomized, double-blinded, placebo-controlled, dose-ranging study • HCV genotype 1-infected patients • With no evidence of cirrhosis • ALT values <5×ULM • Plasma HCV RNA of >5 log10 IU/mL at screening • 4-arm comparative study (6:2 randomization VX-222: placebo) • Enrollment in this dosing—ranging study was sequential • 250 mg BID for 3 days • 500 mg BID for 3 days • 750 mg BID for 3 days • 1500 mg QD for 3 days.

[2] = system: genotype 1 chronic hepatitis C infection; test: Study 101 Part C: pharmacodynamics of VX-222 (HCV plasma RNA); format: in vivo, Hepatitis C virus; details: 750 mg b.i.d. for 3 consecutive days, treatment-naïve genotype 1 subjects
Protocol: In Part C of Study 101, VX-222 was administered as multiple doses of 750 mg b.i.d. to treatment-naïve subjects with chronic hepatitis C for 3 days. In addition, in Part A of Study 102, VX-222 was administered as multiple doses ranging from 250 mg to 750 mg BID and 1500 mg once a day to treatment-naïve subjects with chronic hepatitis C for 3 days. A primary objective of Part C of Study 101 was to assess the pharmacodynamics of VX-222 in treatment-naïve subjects with genotype 1 chronic hepatitis C infection. The final pharmacodynamic parameters of VX-222 administered at 750 mg b.i.d. for 3 consecutive days are outlined below: • The mean untransformed baseline (Day 1) HCV plasma RNA level was 4962600 IU/mL (log10=6.4927). • The mean maximum reduction from baseline calculated using the log10 predose HCV plasma RNA on Days 2 to 4 was −3.6784. The correlation between the predose RNA levels and the amplitude of the reduction in log 10 HCV RNA was relatively weak.

genotype 1 HCV = test: Study VX-222-102 Part A: plasma HCV RNA reduction; format: in vivo, Hepatitis C virus
Protocol: as §1, §2, §3

[3] = all four dose groups, blinded pooled data placebo or VX-222
[4] = 250 mg, 250 mg b.i.d., Day 1, HCV infected subjects
[5] = 250 mg, 250 mg b.i.d., Day 3, HCV infected subjects
[6] = 500 mg, 500 mg b.i.d., Day 1, HCV infected subjects
[7] = 500 mg, 500 mg b.i.d., Day 3, HCV infected subjects
[8] = 750 mg, 750 mg b.i.d., Day 1, HCV infected subjects
[9] = 750 mg, 750 mg b.i.d., Day 3, HCV infected subjects

Which “in vitro IC90” value (in vitro IC90 of VX-222) does the source give for `CC1CCC(C(=O)N(c2cc(C#CC(C)(C)C)sc2C(=O)O)C2CCC(O)CC2)CC1` (stereo not drawn) [VX-222, 5-(3,3-Dimethylbut-1-ynyl)-3-[(trans-4-hydroxycyclohexyl)-(4-trans methylcyclohexanecarbonyl)amino]thiophene-2-carboxylic acid] here?
The value was 0.319 µg/mL.

And the “severe or serious events” value ([1]; 250, 500 or 750 mg b.i.d. for 3 days, genotype 1 chronic hepatitis C subjects)?
Its value is “no reported severe or serious events”.

And the “VX-222 exposures versus dose” value ([1]; 250-750 mg BID and 1500 mg QD, FIG. 7)?
Its value is “increased with doses in an approximately proportional manner”.

What about the “severe or serious adverse events” value [1, 3] of the same compound?
The value was “no severe or serious adverse events were reported”.

And the tolerability [1, 3]?
Its tolerability is “well-tolerated”.

What about the AUC(0-t) [1, 4] of the same compound?
Its AUC(0-t) is 11700 ng·h/mL.

What about the concentration at 12 h [1, 4] of the same compound?
The concentration at 12 h was 858 ng/mL.

What about the Cmax [1, 4] of the same compound?
Its Cmax is 1810 ng/mL.

What about the Tmax ([1]; 250 mg, 250 mg b.i.d., Day 1, HCV infected subjects, read-out: tmax Median) of the same compound?
The Tmax was 6 h.

What about the AUC(0-t) [1, 5] of the same compound?
The AUC(0-t) was 19500 ng·h/mL.

And the concentration at 12 h [1, 5]?
The concentration at 12 h was 728 ng/mL.

And the Cmax [1, 5]?
The Cmax was 2960 ng/mL.

What about the Tmax ([1]; 250 mg, 250 mg b.i.d., Day 3, HCV infected subjects, read-out: tmax Median) of the same compound?
Its Tmax is 4 h.

And the AUC(0-t) [1, 6]?
The AUC(0-t) was 22900 ng·h/mL.

And the concentration at 12 h [1, 6]?
Its concentration at 12 h is 767 ng/mL.

What about the Cmax [1, 6] of the same compound?
The Cmax was 4360 ng/mL.

What about the Tmax ([1]; 500 mg, 500 mg b.i.d., Day 1, HCV infected subjects, read-out: tmax Median) of the same compound?
The Tmax was 3 h.

And the AUC(0-t) [1, 7]?
The AUC(0-t) was 29800 ng·h/mL.

And the concentration at 12 h [1, 7]?
Its concentration at 12 h is 858 ng/mL.

And the Cmax [1, 7]?
The Cmax was 5040 ng/mL.

What about the Tmax ([1]; 500 mg, 500 mg b.i.d., Day 3, HCV infected subjects, read-out: tmax Median) of the same compound?
Its Tmax is 2.5 h.

And the AUC(0-t) [1, 8]?
The AUC(0-t) was 43600 ng·h/mL.

What about the concentration at 12 h [1, 8] of the same compound?
Its concentration at 12 h is 1690 ng/mL.

And the Cmax [1, 8]?
The Cmax was 6520 ng/mL.

What about the Tmax ([1]; 750 mg, 750 mg b.i.d., Day 1, HCV infected subjects, read-out: tmax Median) of the same compound?
Its Tmax is 3 h.

And the AUC(0-t) [1, 9]?
The AUC(0-t) was 63000 ng·h/mL.

And the concentration at 12 h [1, 9]?
Its concentration at 12 h is 1680 ng/mL.

And the Cmax [1, 9]?
The Cmax was 10300 ng/mL.

And the Tmax ([1]; 750 mg, 750 mg b.i.d., Day 3, HCV infected subjects, read-out: tmax Median)?
Its Tmax is 2 h.

What about the Tmax ([1]; post dose, 250-750 mg BID and 1500 mg QD, FIG. 7, read-out: Tmax) of the same compound?
The Tmax was 2 to 6 h.

And the half-life ([1]; 250 mg b.i.d., Day 3, HCV infected subjects)?
Its half-life is 4.1 h.

What about the half-life ([1]; 500 mg b.i.d., Day 3, HCV infected subjects) of the same compound?
The half-life was 4 h.

What about the half-life ([1]; 750 mg b.i.d., Day 3, HCV infected subjects) of the same compound?
The half-life was 3.5 h.

What about the “mean maximum reduction from baseline, log10 predose HCV plasma RNA on Days 2 to 4” value [2] of the same compound?
The value was −3.6784.

What about the “mean HCV RNA decline after three days of dosing” value (shortened to “mean HCV RNA decline”) (genotype 1 HCV; 250 mg BID) of the same compound?
The value was 3.1 log10.

What about the “Mean Viral Load Reduction at Day 4” value (genotype 1 HCV; 250 mg b.i.d. for 3 days) of the same compound?
Its value is −3.1.

What about the “mean HCV RNA decline” value (genotype 1 HCV; 500 mg BID) of the same compound?
Its value is 3.4 log10.

And the “Mean Viral Load Reduction at Day 4” value (genotype 1 HCV; 500 mg b.i.d. for 3 days)?
The value was −3.4.

What about the “mean HCV RNA decline” value (genotype 1 HCV; 750 mg BID) of the same compound?
The value was 3.2 log10.

What about the “Mean Viral Load Reduction at Day 4” value (genotype 1 HCV; 750 mg b.i.d. for 3 days) of the same compound?
Its value is −3.2.

And the “mean HCV RNA decline” value (genotype 1 HCV; 1,500 mg QD)?
Its value is 3.4 log10.

What about the “Mean Viral Load Reduction at Day 4” value (genotype 1 HCV; 1,500 mg QD for 3 days) of the same compound?
Its value is −3.4.

And the “mean log HCV RNA decrease on Day 4” value (genotype 1 HCV; Cohort 1, 250 mg b.i.d.)?
Its value is 3.1 log.

And the “mean log HCV RNA decrease on Day 4” value (genotype 1 HCV; Cohort 2, 500 mg b.i.d.)?
Its value is 3.4 log.

What about the “mean log HCV RNA decrease on Day 4” value (genotype 1 HCV; Cohort 3, 750 mg b.i.d.) of the same compound?
Its value is 3.2 log.

And the “mean log HCV RNA decrease on Day 4” value (genotype 1 HCV; Cohort 4, 1,500 mg once a day)?
Its value is 3.6 log.

What about the “mean reductions in plasma HCV RNA” value (genotype 1 HCV; across the four VX-222 dose groups) of the same compound?
Its value is “greater than 3 log10”.
